Calls of active or inactive are those of the source. The rule behind the calls is not given here.
Assays:
[1] = target: Ephrin type-A receptor 4 (Homo sapiens) (UniProt P54764); test: Inhibition of EPHA4 (unknown origin) at 1 uM by Ambit Kinomescan binding assay relative to control; values are per cent of control
[2] = target: Phosphatidylinositol 4-phosphate 5-kinase type-1 gamma (Homo sapiens) (UniProt O60331); test: Inhibition of PIP5K1C (unknown origin) at 1 uM by Ambit Kinomescan binding assay relative to control; values are per cent of control
[3] = target: Serine/threonine-protein kinase PAK 3 (Homo sapiens) (UniProt O75914); test: Inhibition of PAK3 (unknown origin) at 10 uM by Ambit Kinomescan binding assay
[4] = target: T1, Mitogen-activated protein kinase kinase kinase kinase 2 (Homo sapiens) (UniProt Q12851); test: Inhibition of MAP4K2 (GCK) Lys2 labeling site in human A-375 cells at 0.5 uM by KiNativ Profiling analysis relative to control; type: cell-based
T1 sequence (whole entry): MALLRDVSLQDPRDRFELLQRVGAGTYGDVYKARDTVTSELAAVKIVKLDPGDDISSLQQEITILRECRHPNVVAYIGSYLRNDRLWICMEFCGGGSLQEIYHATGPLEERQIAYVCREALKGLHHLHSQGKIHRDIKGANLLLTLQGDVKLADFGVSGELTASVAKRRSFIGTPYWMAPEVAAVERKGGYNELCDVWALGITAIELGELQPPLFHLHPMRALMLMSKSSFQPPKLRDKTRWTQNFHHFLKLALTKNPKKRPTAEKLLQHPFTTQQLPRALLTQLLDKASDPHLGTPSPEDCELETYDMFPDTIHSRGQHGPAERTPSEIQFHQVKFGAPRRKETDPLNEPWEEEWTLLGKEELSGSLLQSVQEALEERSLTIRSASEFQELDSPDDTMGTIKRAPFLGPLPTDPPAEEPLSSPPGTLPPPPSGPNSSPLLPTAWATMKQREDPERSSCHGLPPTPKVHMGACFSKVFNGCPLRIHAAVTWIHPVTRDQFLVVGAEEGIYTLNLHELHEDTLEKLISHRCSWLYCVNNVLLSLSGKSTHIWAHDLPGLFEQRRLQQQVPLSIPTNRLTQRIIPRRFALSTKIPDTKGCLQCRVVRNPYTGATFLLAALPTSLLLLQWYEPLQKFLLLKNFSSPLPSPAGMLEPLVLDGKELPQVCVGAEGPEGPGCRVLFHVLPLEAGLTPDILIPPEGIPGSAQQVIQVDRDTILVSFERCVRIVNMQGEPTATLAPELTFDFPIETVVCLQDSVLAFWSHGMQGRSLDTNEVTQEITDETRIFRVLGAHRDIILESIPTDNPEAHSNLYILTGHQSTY

[5] = target: Interleukin-1 receptor-associated kinase 3 (Homo sapiens) (UniProt Q9Y616); test: Inhibition of IRAK3 (unknown origin) at 10 uM by Ambit Kinomescan binding assay
[6] = target: Ephrin type-A receptor 7 (Homo sapiens) (UniProt Q15375); test: Inhibition of EPHA7 (unknown origin) at 10 uM by Ambit Kinomescan binding assay
[7] = target: T2, Serine/threonine-protein kinase Nek1 (Homo sapiens) (UniProt Q96PY6); test: Inhibition of NEK1 Lys2 labeling site in human A-375 cells at 0.05 uM by KiNativ Profiling analysis relative to control; type: cell-based
T2 sequence (whole entry): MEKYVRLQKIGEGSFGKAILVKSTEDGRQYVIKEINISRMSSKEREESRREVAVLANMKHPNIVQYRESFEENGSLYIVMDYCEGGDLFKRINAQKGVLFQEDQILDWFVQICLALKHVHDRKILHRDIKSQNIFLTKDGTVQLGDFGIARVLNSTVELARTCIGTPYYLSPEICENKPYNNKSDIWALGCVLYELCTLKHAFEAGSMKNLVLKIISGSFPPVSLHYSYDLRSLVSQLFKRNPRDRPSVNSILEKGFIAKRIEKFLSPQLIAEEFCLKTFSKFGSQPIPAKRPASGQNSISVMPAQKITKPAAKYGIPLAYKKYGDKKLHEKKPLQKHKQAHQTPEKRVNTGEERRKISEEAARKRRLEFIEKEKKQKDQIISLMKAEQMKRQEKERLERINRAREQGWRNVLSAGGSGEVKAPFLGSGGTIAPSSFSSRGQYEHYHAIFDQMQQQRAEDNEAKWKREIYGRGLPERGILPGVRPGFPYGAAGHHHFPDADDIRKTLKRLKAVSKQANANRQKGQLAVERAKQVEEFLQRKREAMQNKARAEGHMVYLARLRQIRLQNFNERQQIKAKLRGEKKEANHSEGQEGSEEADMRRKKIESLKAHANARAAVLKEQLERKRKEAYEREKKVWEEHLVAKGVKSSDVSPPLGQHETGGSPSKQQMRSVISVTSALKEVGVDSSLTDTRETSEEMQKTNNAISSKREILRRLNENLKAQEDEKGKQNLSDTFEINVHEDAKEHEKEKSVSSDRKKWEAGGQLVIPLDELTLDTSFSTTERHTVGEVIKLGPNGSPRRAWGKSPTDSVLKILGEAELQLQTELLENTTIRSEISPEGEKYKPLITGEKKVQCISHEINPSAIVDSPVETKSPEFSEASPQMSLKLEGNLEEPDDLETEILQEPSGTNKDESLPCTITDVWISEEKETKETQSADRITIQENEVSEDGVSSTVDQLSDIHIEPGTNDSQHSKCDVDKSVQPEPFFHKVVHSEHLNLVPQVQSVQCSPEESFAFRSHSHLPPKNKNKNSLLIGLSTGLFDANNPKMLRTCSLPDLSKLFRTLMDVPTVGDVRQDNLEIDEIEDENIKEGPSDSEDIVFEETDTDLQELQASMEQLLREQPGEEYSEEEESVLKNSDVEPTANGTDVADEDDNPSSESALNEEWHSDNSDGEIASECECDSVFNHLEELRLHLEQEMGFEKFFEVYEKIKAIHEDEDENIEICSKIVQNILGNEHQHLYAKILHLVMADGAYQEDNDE

[8] = target: Cyclin-dependent kinase 9 (Homo sapiens) (UniProt P50750); test: Inhibition of CDK9 (unknown origin) at 10 uM by Ambit Kinomescan binding assay relative to control
[9] = target: Rho-associated protein kinase 2 (Homo sapiens) (UniProt O75116); test: Inhibition of ROCK2 Lys2 labeling site in human Huh-7 cells at 1 uM by KiNativ Profiling analysis relative to control; type: cell-based
[10] = target: Ribosomal protein S6 kinase delta-1 (Homo sapiens) (UniProt Q96S38); test: Inhibition of RSKL1 domain1 Protein Kinase Domain labeling site in human Huh-7 cell lysate at 1 uM by KiNativ Profiling analysis relative to control; type: subcellular

Sequence of Phosphatidylinositol 4-phosphate 5-kinase type-1 gamma (Homo sapiens) (O60331 whole entry): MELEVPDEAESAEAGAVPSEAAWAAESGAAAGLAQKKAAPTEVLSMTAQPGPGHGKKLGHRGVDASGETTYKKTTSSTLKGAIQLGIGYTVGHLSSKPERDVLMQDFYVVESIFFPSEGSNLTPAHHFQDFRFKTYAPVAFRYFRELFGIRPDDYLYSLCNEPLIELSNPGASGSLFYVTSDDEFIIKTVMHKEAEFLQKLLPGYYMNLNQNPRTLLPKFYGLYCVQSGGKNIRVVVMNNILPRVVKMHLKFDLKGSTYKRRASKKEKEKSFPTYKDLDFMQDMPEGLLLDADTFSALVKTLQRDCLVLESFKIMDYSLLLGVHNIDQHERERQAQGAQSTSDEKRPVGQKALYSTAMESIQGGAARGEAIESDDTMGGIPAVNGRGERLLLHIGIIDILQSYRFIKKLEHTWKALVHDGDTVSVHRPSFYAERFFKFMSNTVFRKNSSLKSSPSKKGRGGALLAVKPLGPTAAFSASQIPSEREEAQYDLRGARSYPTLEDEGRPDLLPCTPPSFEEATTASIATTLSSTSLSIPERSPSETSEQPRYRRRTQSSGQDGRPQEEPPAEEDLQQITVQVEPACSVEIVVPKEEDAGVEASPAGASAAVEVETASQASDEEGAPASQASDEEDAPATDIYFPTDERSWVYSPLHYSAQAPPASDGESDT
Sequence of Ephrin type-A receptor 7 (Homo sapiens) (Q15375 28-998 limits assumed): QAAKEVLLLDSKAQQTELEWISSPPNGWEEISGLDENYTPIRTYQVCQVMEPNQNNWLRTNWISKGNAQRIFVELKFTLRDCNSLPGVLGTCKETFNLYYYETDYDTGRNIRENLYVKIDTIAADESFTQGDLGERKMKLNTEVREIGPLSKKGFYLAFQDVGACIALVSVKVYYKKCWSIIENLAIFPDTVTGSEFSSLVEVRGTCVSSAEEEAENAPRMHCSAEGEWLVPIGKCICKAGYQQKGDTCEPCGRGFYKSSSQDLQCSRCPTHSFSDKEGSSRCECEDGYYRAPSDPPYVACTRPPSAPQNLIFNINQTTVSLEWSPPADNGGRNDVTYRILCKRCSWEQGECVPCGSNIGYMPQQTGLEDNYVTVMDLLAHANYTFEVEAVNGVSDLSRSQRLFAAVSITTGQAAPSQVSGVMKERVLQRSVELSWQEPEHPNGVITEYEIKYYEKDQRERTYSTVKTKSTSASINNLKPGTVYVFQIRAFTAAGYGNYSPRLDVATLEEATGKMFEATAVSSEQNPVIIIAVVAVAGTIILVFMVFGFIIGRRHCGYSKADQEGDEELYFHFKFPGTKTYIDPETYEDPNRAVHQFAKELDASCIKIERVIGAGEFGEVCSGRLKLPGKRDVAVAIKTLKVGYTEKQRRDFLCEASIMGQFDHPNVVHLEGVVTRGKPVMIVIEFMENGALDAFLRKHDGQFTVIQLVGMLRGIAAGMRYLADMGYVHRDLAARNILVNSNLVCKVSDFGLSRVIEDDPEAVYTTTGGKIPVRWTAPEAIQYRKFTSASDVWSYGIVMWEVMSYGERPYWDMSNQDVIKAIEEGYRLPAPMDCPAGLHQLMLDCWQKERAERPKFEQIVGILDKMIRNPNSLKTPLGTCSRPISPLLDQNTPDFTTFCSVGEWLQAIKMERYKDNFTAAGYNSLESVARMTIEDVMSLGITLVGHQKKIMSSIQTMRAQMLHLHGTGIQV
Sequence of Serine/threonine-protein kinase PAK 3 (Homo sapiens) (O75914 whole entry, looked up): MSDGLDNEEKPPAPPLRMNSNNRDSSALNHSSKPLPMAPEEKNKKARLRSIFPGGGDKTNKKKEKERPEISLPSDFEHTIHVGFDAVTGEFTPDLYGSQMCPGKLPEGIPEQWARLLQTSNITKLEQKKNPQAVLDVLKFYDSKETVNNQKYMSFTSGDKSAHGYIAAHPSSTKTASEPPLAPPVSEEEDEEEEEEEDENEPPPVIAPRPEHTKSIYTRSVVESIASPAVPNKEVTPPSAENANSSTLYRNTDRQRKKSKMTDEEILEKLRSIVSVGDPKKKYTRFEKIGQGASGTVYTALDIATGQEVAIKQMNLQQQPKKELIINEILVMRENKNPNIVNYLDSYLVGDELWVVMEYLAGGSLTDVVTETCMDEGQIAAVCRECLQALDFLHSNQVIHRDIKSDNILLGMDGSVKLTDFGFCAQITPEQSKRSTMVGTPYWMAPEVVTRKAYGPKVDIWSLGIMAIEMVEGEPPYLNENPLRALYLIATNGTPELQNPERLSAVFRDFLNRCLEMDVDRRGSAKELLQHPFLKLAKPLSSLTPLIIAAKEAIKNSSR
Sequence of Ephrin type-A receptor 4 (Homo sapiens) (P54764 whole entry): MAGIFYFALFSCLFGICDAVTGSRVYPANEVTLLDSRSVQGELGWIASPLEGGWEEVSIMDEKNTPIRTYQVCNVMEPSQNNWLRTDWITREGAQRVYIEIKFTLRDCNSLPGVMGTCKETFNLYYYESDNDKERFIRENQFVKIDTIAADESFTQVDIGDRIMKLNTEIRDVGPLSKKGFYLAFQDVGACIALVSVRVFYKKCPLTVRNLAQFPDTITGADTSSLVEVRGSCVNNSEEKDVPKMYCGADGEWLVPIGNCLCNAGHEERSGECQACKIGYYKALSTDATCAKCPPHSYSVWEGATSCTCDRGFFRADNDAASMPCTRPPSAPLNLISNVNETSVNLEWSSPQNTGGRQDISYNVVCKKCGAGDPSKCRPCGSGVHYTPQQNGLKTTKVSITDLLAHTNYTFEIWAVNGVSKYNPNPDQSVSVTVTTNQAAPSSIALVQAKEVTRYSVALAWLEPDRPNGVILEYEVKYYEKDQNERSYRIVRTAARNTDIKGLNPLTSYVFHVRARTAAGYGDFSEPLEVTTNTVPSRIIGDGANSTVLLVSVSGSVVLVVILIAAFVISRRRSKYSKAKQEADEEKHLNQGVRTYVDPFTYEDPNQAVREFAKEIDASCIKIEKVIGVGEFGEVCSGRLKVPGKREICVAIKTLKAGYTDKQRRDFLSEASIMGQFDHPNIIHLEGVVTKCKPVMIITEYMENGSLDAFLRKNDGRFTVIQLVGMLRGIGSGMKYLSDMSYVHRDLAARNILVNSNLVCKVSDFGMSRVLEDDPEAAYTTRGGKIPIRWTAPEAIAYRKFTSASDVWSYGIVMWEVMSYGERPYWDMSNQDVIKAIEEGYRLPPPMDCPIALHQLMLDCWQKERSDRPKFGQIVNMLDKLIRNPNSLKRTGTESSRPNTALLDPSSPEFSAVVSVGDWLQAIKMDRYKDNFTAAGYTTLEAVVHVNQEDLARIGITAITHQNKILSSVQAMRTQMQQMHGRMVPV
Sequence of Interleukin-1 receptor-associated kinase 3 (Homo sapiens) (Q9Y616 whole entry): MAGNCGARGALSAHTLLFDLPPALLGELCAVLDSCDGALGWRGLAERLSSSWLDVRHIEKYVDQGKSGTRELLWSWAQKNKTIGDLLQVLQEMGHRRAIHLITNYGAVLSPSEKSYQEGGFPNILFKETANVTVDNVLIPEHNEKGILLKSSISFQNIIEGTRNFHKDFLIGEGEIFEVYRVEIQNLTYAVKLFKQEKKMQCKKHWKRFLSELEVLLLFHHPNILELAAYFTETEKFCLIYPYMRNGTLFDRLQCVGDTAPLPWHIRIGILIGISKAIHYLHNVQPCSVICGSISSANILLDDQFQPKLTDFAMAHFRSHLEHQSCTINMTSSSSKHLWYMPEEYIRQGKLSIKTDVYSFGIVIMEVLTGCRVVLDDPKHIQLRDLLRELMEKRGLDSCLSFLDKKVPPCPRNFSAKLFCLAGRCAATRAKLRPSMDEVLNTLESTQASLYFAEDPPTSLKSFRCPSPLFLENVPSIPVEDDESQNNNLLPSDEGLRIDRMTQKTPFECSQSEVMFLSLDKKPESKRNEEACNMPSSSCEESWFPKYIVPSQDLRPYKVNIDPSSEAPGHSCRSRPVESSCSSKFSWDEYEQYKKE
Sequence of Cyclin-dependent kinase 9 (Homo sapiens) (P50750 whole entry): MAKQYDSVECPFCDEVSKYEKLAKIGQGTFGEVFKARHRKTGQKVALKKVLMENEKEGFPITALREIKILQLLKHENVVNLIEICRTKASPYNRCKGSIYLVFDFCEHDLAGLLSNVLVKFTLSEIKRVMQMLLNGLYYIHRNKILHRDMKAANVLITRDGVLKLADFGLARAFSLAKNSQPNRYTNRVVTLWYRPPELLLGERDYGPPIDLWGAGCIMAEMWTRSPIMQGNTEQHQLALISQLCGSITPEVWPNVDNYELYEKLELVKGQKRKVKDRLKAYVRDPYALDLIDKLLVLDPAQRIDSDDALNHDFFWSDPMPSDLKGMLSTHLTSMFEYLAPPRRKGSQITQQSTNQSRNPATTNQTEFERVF

CCN1CCN(Cc2ccc(NC(=O)c3ccc(C)c(/C=C/c4cnc5[nH]ccc5c4OC)c3)cc2C(F)(F)F)CC1
residual activity [1]: 3.7% | percent of control [2]: 100%

CCN1CCN(Cc2ccc(NC(=O)c3ccc(C)c(Oc4ccnc5[nH]ccc45)c3)cc2C(F)(F)F)CC1
inhibition [3]: inactive | inhibition [4]: 98% | inhibition [5]: inactive | inhibition [6]: inactive | inhibition [7]: -7.1% | inhibition [8]: 5.8%

CNc1cc(Oc2cc(C(=O)Nc3cc(N4CCN(C)CC4)cc(C(F)(F)F)c3)ccc2C)ncn1
inhibition [9]: -1% | inhibition [10]: 15.7%

Reference: ChEMBL document CHEMBL5696442, “Discovery of type II inhibitors of TGFβ-activated kinase 1 (TAK1) and mitogen-activated protein kinase kinase kinase kinase 2 (MAP4K2)” (J Med Chem, 2015)
